Measured values reported in patent publication US6933277B2, “Prevention of fetal alcohol syndrome and neuronal cell death with ADNF polypeptides” (The United States of America as represented by the …, priority 1999, dated 2005).
No end group written: not given here.

Assays:
[1] = system: model for FAS, C57B 1/6J mouse strain; test: Fetal demise at E18 in mouse model for FAS (alcohol on E8, peptide pretreatment); type: in vivo; conditions: for percentage of fetal demises: E18, pretreatment 30 min prior to alcohol (25% ethyl alcohol i.p., 0.030 ml/g) on E8, NAPVSIPQ 20 μg, SALLRSIPA 20 μg, VIP 1 μg, combination 20 μg+20 μg; for alcohol toxicity as measured by fetal demises and weight (summary): summary of fetal demises and weights (fetal and fetal brain) at E18
Experimental: (§1) C57-B16J female mice (Jackson Labs) were kept under a 12 h light, 12 h dark regimen with food and water available at all times. The mice received humane animal care in compliance with the “Guideline for Care and Use of Experimental Animals.” Six week old females (21-24 grams) were mated with C57-B 16J males for 4 h. The presence of a vaginal plug was considered day 0 pregnancy.
(§2) A published well-delineated model for FAS was followed (Webster, W. S., et al., Neurobehav Tox, 2:227-34 (1980)). Animals were injected (intraperitoneal) on E8 with […] in saline (v/v) or vehicle alone at 0.030 ml/g body weight. Pretreatment with VIP and ADNF peptides (NAPVSIPQ (SEQ ID NO:2), SALLRSIPA (SEQ ID NO:1), NAPVSIPQ (SEQ ID NO:2)+SALLRSIPA (SEQ ID NO:1)) were given 30 min prior to alcohol. Dosages of the neuropeptides were NAPVSIPQ (SEQ ID NO:2) (20 μg) and (40 μg), SALLRSIPA (SEQ ID NO:1) (20 μg), NAPVSIPQ (SEQ ID NO:2) (20 μg)+(20 μg); VIP (1 μg). A NAPVSIPQ (SEQ ID NO:2)+SALLRSIPA (SEQ ID NO:1) control group without alcohol was studied. NAPVSIPQ (SEQ ID NO:2) was diluted in 50 μl DMSO and diluted in filtered Dulbecco's phosphate buffered saline (DPBS). SAL was dissolved and diluted in filtered DPBS. VIP was dissolved in […] glacial acetic acid and diluted in HPLC water and DPBS. Since the animals receiving alcohol were incapacitated for approximately 6 h following injection, food and water were withheld from all groups for the initial 6 hours after injection, to allow accurate assessment of fetal weights.
(§3) At E18 (embryonic gestation day 18), the number of live and demised fetuses was determined. Fetal weights and fetal brain weights were obtained for each fetus in the litter. The mean fetal weights were determined for each mother and this was used for statistical analysis.
(§4) The mean litter pup and fetal brain weight was calculated, with the litter mean used for all statistical analysis. Percent demises were calculated by dividing the number of demises by the total number of fetuses (live plus demises). Statistical analysis included ANOVA for continuous variables, Mann-Whitney U for nonparametic data, Chi square for categorical variables or Fisher's exact test where appropriate [Statview 4.5 (Abacus Concepts, Inc., Berkeley, Calif.)] with p<0.05 considered significant. Results are presented as mean±standard error unless specified.
(§5) The C57B 1/6J mouse strain provided a well-characterized model for FAS. Previous work with this strain has defined the effects of dosage and embryonic timing on maternal serum alcohol levels and embryonic effects (Webster et al., Neurobehav Tox, 2:227-34 (1980)), incorporated herein by reference. Intra-peritoneal treatment allowed for defined and reproducible dosages. […] The mice were injected with 25% ethyl alcohol in saline (v/v) or vehicle alone at 0.030 ml/g maternal body weight at 0900 on E8. Pretreatment with the study peptides was given 30 minutes prior to alcohol administration. […]
To assess the protective effects of the ADNF peptides in the most severe form of stress, the number of fetal death was determined. […]

[2] = system: model for FAS, C57B 1/6J mouse strain; test: Fetal weights and fetal brain weights at E18 in mouse model for FAS; type: in vivo; conditions: pretreatment 30 min prior to alcohol on E8; for fetal weights (alcohol-induced growth restriction): NAPVSIPQ 20 μg, VIP 1 μg
Experimental: as §1, §2, §3, §4, §5
In the surviving E18 fetuses, fetal and fetal brain weights were evaluated to assess the protective effects of the ADNF peptides. […]

[3] = stated without test; cited from earlier work
[4] = surviving E18 fetuses, SALLRSIPA 20 μg, combination 20 μg+20 μg

With “NAPVSIPQ [Asn-Ala-Pro-Val-Ser-Ile-Pro-Gln]” the “percentage of fetal demises” value [1] was “prevented the demises seen with alcohol”, the “alcohol toxicity as measured by fetal demises and weight (summary)” value [1] was “moderately prevented alcohol toxicity” and the alcohol-induced growth restriction ([2]; double dosage of NAPVSIPQ (40 μg), E18) was “moderately prevented the alcohol-induced growth restriction”. For the same substance, the “fetal weights (alcohol-induced growth restriction)” value (from here on “fetal weights”) [2, 4] was “moderately prevented the alcohol-induced growth restrictions” and the “crossing of the blood brain barrier” value [3] was “cross the blood brain barrier”.

In the case of “SALLRSIPA [Ser-Ala-Leu-Leu-Arg-Ser-Ile-Pro-Ala]”, the “percentage of fetal demises” value [1] is reported as “unable to bring the fetal demise rate to control levels”, the “alcohol toxicity as measured by fetal demises and weight (summary)” value [1] is reported as “moderately prevented alcohol toxicity” and the “fetal weights” value [2, 4] is reported as “did not prevent the alcohol-induced fetal weight reduction”. The “fetal brain weights (alcohol-induced fetal brain weight reduction)” value [2, 4] was “moderately prevented the alcohol-induced fetal brain weight reduction” and the “crossing of the blood brain barrier” value [3] was “cross the blood brain barrier”.

With “vasoactive intestinal peptide (HSDAVFTDNYTRLRKQMAVKKYLNSILN; ends and bridges not checked; UniProt P01282 125-152, looked up) [VIP, neuropeptide that is a regulator of early postimplantation mouse embryonic growth, reference compound]” the “percentage of fetal demises” value [1] was “slightly improved the fetal demise rate” and the “fetal weights” value [2, 4] was “improved embryonic weights; however, the effect was intermediate”.
